Results: patent publication US9809861B2, “Method of evaluating inhibitory effect on damp-dry malodor” (Kao Corporation, priority 2012, dated 2017)

Legend:
fadD gene = assay: Change in expression amount of fadD gene in the presence of test substance (real time PCR); format: cell-based, Moraxella sp. KMC4-1; conditions: for Change in the expression amount of fadD gene: Substance (1) 10 ppm, (2)(3)(5)(6) 100 ppm, (4) 500 ppm; for expression amount of the fadD gene by the microorganisms: summary of Table 13
Method: The substances (1) to (7) described below each were added to 4 mL SCD liquid medium (manufactured by NIHON PHARMACEUTICAL CO., LTD). As a control, a medium system not added with any test substance was also prepared. To these medium, one platinum loop of precultured Moraxella sp. KMC4-1 was inoculated and cultured for 24 hours at 35 C while shaking (160 rpm).
To the cell liquid cultured for 24 hours, 10 mg of 16-methyloctadecanoic acid was added as a sebaceous dirt component. After culturing again for 6 hours at 35° C., the cells were collected. As a control, a system not added with a sebaceous dirt component was also cultured and cells were collected therefrom.
An RNA sample was prepared from the collected cells in the same manner as in the test example 1.
Reaction solutions for real time PCR were prepared in the same manner as above, except that, instead of the primer set including the primer containing the oligonucleotide having the base sequence set forth in SEQ ID NO: 13 and the primer containing the oligonucleotide having the base sequence set forth in SEQ ID NO: 14, the primer set described in Tables 11 to 13 was used.
The reaction solutions for real time PCR each were subjected to a gene amplification by using an automatic gene amplification thermal cycler DICE Real time system II (manufactured by Takara Bio Inc.), and then the expression amount of each of the fatty acid desaturase gene (the Δ9desaturase gene) and the β oxidation-relating enzyme genes (the fadB gene and the fadD gene) was measured. PCR reaction conditions were 40 cycles of (i) a thermal denaturation reaction at 95° C. for 20 seconds, and (ii) an annealing reaction and an elongation reaction at 60° C. for 30 seconds.
By having the gene expression of 16S rRNA as an internal standard, and having the gene expression amount when adding no sebaceous dirt component and no test substance as a reference value, change in expression amount of each gene was calculated relative to the reference value. A sample, in which the expression amount of the gene was ½ times or less the reference value, was rated as “A”; a sample, in which the expression amount of the gene was more than ½ times and ⅔ times or less the reference value, was rated as “B”; and a sample, in which the expression amount of the gene was more than ⅔ times the reference value, was rated as “C”.

Moraxella sp. KMC4-1 [1] = assay: Sensory evaluation of inhibitory effect on damp-dry malodor on model examination cloth; format: cell-based; conditions: summary of Table 14
Method: (§1) Subsequently, by using Moraxella sp. KMC4-1, which is one kind of the microorganisms which produce damp-dry malodor-causing substances, sensory evaluation of the inhibitory effect on damp-dry malodor by the test substance and measurement of production amount of 4M3H as one kind of the damp-dry malodor-causing substances were carried out.
(§2) Moraxella sp. KMC4-1 was inoculated as a test microbe onto SCD-LP agar medium (manufactured by Wako Pure Chemical Industries, Ltd.) and cultured for 1 to 2 weeks at room temperature to give a pre-culture plate. Colony surface was scraped off from the pre-culture plate, suspended in 5 mL of physiological saline, and OD600 was adjusted to 1.0 (about 10^8 CFU/mL).
(§3) A cotton jersey cloth obtained in a constant state after sterilization and drying at 25° C., 40% RH (cotton jersey manufactured by Shikisensha Colo., LTD., without silket finish) was cut to a square of 2 cm×2 cm. To the cloth, a solution prepared by dissolving 0.5 mg of 14-methylhexadecanoic acid, as a sebaceous dirt component, in 0.1 mL methanol, was applied. Then, methanol was dried to solid, to give a model examination cloth.
Methanol solution was prepared for each test substance and applied at 20° C. on the model examination cloth such that applied amount of each test substance was […] per gram of the model examination cloth. It was then dried for 2 hours at room temperature to dry methanol. Thereafter, 0.1 mL of the microbe suspension was coated onto the model examination cloth, and cultured for 24 hours in a petri dish using an incubator at 37° C. with relative humidity of 70%, to obtain a microbe-fixed cloth.
The sensory test of the model examination cloth was evaluated by a professional panel who can distinguish different subjects based on the damp-dry malodor. A sample, in which an inhibitory effect on damp-dry malodor was confirmed, was rated as “A”; a sample, in which it was difficult to determine the inhibitory effect on damp-dry malodor or a Weak inhibitory effect on damp-dry malodor was confirmed, was rated as “B; and a sample, in which no inhibitory effect on damp-dry malodor was confirmed, was rated as “C”.

Moraxella sp. KMC4-1 [2] = assay: Quantification of 4M3H produced in model examination cloth (LC-FL); format: cell-based; conditions: for Ratio of suppressing 4M3H production: cotton cloth with 0.5 mg 14-methylhexadecanoic acid, 24 hours, 37° C., relative to no test substance, Substance (1) 10 ppm, (2)(3)(5)(6) 100 ppm, (4) 500 ppm; for 4M3H production inhibition ratio: summary of Table 14
Method: as §1, §2, §3
[…] It was then dried for 2 hours at room temperature to dry methanol. Thereafter, 0.1 mL of the microbe suspension was coated onto the model examination cloth, and cultured for 24 hours in a petri dish using an incubator at 37° C. with relative humidity of 70%, to obtain a microbe-fixed cloth.
Further, the model examination cloth was analyzed by using LC-FL (liquid chromatography apparatus: HITACHI ELITE LaChrom (trade name, manufactured by Hitachi, Ltd.), column: Lichrosphere 100 RP-8(e) (trade name, manufactured by Agilent Technologies, Inc., 5 μm×125 mm×4 mmφ), column temperature: 40° C., eluent: a mixed solution of acetonitrile/water=7/3 (volume ratio), flow rate: 1.0 mL/min, detector: excitation wavelength (365 nm), measurement wavelength (412 nm)), and thereby quantification of 4M3H thus produced in the model examination cloth was carried out. Ratio of the produced 4M3H amount relative to the 4M3H production amount when no test substance was added was calculated, and then ratio of suppressing 4M3H production was calculated.

Moraxella sp. KMC4-1 [3] = assay: Bactericidal test; format: cell-based; conditions: 10^6 CFU/mL, 2 hours, 25° C.; Substance (1) 10 ppm, (2)(3)(5)(6) 100 ppm, (4) 500 ppm
Method: To 5 mL of a test solution in which the substances (1) to (7) each were added so as to be the final concentration described in Table 15, the precultured Moraxella sp. KMC4-1 was inoculated so as to be the concentration of 10^6 CFU/mL and cultured for 2 hours at 25° C. while shaking (160 rpm). After that, it was subjected to serial dilution using LP dilution solution (NIHON PHARMACEUTICAL CO., LTD). Then, by using SCD-LP agar medium (NIHON PHARMACEUTICAL CO., LTD), the number of bacteria remained alive was determined.
As for the growth-inhibitory and the bactericidal effect, the evaluation was made as follows: compared to the control, when there was the bacteria number decrease of log 3 or more, it was rated as “A”; when there was the bacteria number decrease of log 1 or more but less than log 3, it was rated as “B”; and when there was the bacteria number decrease of less than log 1, it was rated as “C”.

Structure (SMILES)	Change in the expression amount of fadD gene (fadD gene; primers SEQ ID NO: 35 / 36)	Change in the expression amount of fadD gene (fadD gene; primers SEQ ID NO: 41 / 42)	expression amount of the fadD gene by the microorganisms (fadD gene)	inhibitory effect on damp-dry malodor (Moraxella sp. KMC4-1 [1])	Ratio of suppressing 4M3H production (Moraxella sp. KMC4-1 [2]) [%]	4M3H production inhibition ratio (Moraxella sp. KMC4-1 [2])	Bactericidal effect (Moraxella sp. KMC4-1 [3])
CCCCCCCCCC=O [Substance (1)]	A (the expression amount of the gene was ½ times or less the reference value)	A (the expression amount of the gene was ½ times or less the reference value)	decreased	an inhibitory effect on damp-dry malodor was observed	100	high	C (the bacteria number decrease of less than log 1)
CC(=O)OC(C)(C)Cc1ccccc1 [Substance (2)]	A (the expression amount of the gene was ½ times or less the reference value)	A (the expression amount of the gene was ½ times or less the reference value)	decreased	an inhibitory effect on damp-dry malodor was observed	100	high	C (the bacteria number decrease of less than log 1)
CNc1ccccc1C(=O)OC [Substance (3)]	A (the expression amount of the gene was ½ times or less the reference value)	A (the expression amount of the gene was ½ times or less the reference value)	decreased	an inhibitory effect on damp-dry malodor was observed	91	high	C (the bacteria number decrease of less than log 1)
CCCCCCCC/C=C\CCCCCCCC(=O)O [Substance (4)]	C (the expression amount of the gene was more than ⅔ times the reference value)	C (the expression amount of the gene was more than ⅔ times the reference value)		an inhibitory effect on damp-dry malodor was observed	81	high	C (the bacteria number decrease of less than log 1)
O=C[C@H](O)[C@@H](O)[C@H](O)[C@H](O)CO [Substance (5)]	C (the expression amount of the gene was more than ⅔ times the reference value)	C (the expression amount of the gene was more than ⅔ times the reference value)			0		C (the bacteria number decrease of less than log 1)
